PubChem BioAssay AID330 (DTP/NCI, 2004)
“And” between values parts separate entries of the source, which are not always exact repeats. Equal values may be shown once. Inconclusive results and toxic doses are left out.

Tested on: P388 leukemia ip, CD2F1 mice, survival T/C
Test: NCI In Vivo Anticancer Drug Screen. Data for tumor model P388 Leukemia (intraperitoneal) in CD2F1 (CDF1) mice
Settings: endpoint: median survival time, higher = longer survival
Summary of the method: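 Mice carrying the transplanted tumor received test compound or vehicle. Survival was recorded in each group, and the value is the treated-group measurement divided by that of the vehicle-treated control group.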

[1] = dose: 50.0 mg/kg/injection, schedule: Q01DX009 (ip), vehicle: saline with Tween-80
[2] = dose: 100.0 mg/kg/injection, schedule: Q01DX009 (ip), vehicle: saline with Tween-80
[3] = dose: 200.0 mg/kg/injection, schedule: Q01DX009 (ip), vehicle: saline with Tween-80
[4] = dose: 100.0 mg/kg/injection, schedule: Q04DX003 (ip), vehicle: saline with Tween-80
[5] = dose: 200.0 mg/kg/injection, schedule: Q04DX003 (ip), vehicle: saline with Tween-80
[6] = dose: 50.0 mg/kg/injection, schedule: Q01DX005 (ip), vehicle: Klucel (hydroxypropylcellulose) (HPC)
[7] = dose: 100.0 mg/kg/injection, schedule: Q01DX005 (ip), vehicle: Klucel (hydroxypropylcellulose) (HPC)
[8] = dose: 200.0 mg/kg/injection, schedule: Q01DX005 (ip), vehicle: Klucel (hydroxypropylcellulose) (HPC)
[9] = dose: 60.0 mg/kg/injection, schedule: Q01DX005 (ip), vehicle: Klucel (hydroxypropylcellulose) (HPC)
[10] = dose: 120.0 mg/kg/injection, schedule: Q01DX005 (ip), vehicle: Klucel (hydroxypropylcellulose) (HPC)
[11] = dose: 240.0 mg/kg/injection, schedule: Q01DX005 (ip), vehicle: Klucel (hydroxypropylcellulose) (HPC)

## C[N+]1(C)CC=CCC1c1ccccc1 (stereo not drawn)
dose: 6.25 mg/kg/injection, schedule: Q01DX005 (ip), vehicle: saline
  T/C: 104 % of control
dose: 12.5 mg/kg/injection, schedule: Q01DX005 (ip), vehicle: saline
  T/C: 105 % of control
dose: 25.0 mg/kg/injection, schedule: Q01DX005 (ip), vehicle: saline
  T/C: 98 % of control

## CCCC(NC(=O)C(F)(F)F)C(=O)O (stereo not drawn)
[1]
  T/C: 91 % of control
[2]
  T/C: 93 % of control
[3]
  T/C: 106 % of control

## COC(=O)c1cc2c(nn1)C(=O)Nc1ccccc1C2(C)C
dose: 60.0 mg/kg/injection, schedule: Q01DX005 (ip), vehicle: saline with Tween-80
  T/C: 100 % of control
dose: 120.0 mg/kg/injection, schedule: Q01DX005 (ip), vehicle: saline with Tween-80
  T/C: 105 % of control
dose: 240.0 mg/kg/injection, schedule: Q01DX005 (ip), vehicle: saline with Tween-80
  T/C: 96 % of control

## COc1ccc(CCNC(=O)CC2CCN(C)CC2)cc1OC
[4]
  T/C: 101 % of control
[5]
  T/C: 100 % of control

## CN1CCC/C1=C1/C(=O)Nc2ccc(Cl)cc21
[6]
  T/C: 108 % of control
[7]
  T/C: 107 % of control
[8]
  T/C: 102 % of control

## COC1=C(C)C(=O)C2=C(C1=O)C(CO)N1C(C#N)C3CC4C(C1C2N1CCOC41)N3C (stereo not drawn)
dose: 0.15 mg/kg/injection, schedule: Q01DX005 (ip), vehicle: acid diluted with saline
  T/C: 111 % of control and 117 % of control
dose: 0.3 mg/kg/injection, schedule: Q01DX005 (ip), vehicle: acid diluted with saline
  T/C: 113 % of control
dose: 0.4 mg/kg/injection, schedule: Q01DX005 (ip), vehicle: saline + alcohol
  T/C: 152 % of control
dose: 0.6 mg/kg/injection, schedule: Q01DX005 (ip), vehicle: acid diluted with saline
  T/C: 123 % of control
dose: 0.8 mg/kg/injection, schedule: Q01DX005 (ip), vehicle: saline + alcohol
  T/C: 154 % of control

## c1ccc(Nc2ccc(CN3CCOCC3)cc2)cc1
[9]
  T/C: 105 % of control
[10]
  T/C: 96 % of control
[11]
  T/C: 88 % of control

## CCn1c2ccccc2c2cc(N=Nc3[nH]c4ccccc4c3CN(C)C)ccc21
[1]
  T/C: 107 % of control and 108 % of control (2×)
[2]
  T/C: 105 % of control and 106 % of control
[3]
  T/C: 100 % of control and 115 % of control and 118 % of control

## Nc1ccccc1C(=O)On1nnc2ccccc2c1=O
dose: 100.0 mg/kg/injection, schedule: Q01DX001 (ip), vehicle: Klucel (hydroxypropylcellulose) (HPC)
  T/C: 103 % of control
dose: 200.0 mg/kg/injection, schedule: Q01DX001 (ip), vehicle: Klucel (hydroxypropylcellulose) (HPC)
  T/C: 103 % of control
dose: 400.0 mg/kg/injection, schedule: Q01DX001 (ip), vehicle: Klucel (hydroxypropylcellulose) (HPC)
  T/C: 100 % of control

## O=C1OC(=O)C(c2ccccc2)(c2ccccc2)C1c1ccccc1 (stereo not drawn)
[4]
  T/C: 112 % of control
[5]
  T/C: 119 % of control
dose: 400.0 mg/kg/injection, schedule: Q04DX003 (ip), vehicle: saline with Tween-80
  T/C: 112 % of control

## C=CCN(CCNc1cccc2ccccc12)C1CCCCC1
[6]
  T/C: 92 % of control
[7]
  T/C: 100 % of control
[8]
  T/C: 104 % of control

## COC(=O)C1C(C2OC3OC(C)(C)OC3C3OC(C)(C)OC32)N1C(=O)Cl (stereo not drawn)
dose: 100.0 mg/kg/injection, schedule: Q04DX002 (ip), vehicle: saline with Tween-80
  T/C: 102 % of control
dose: 200.0 mg/kg/injection, schedule: Q04DX002 (ip), vehicle: saline with Tween-80
  T/C: 103 % of control

## CC(=O)Nc1ccc2nc3ccc(NC(C)=O)cc3[n+](-c3ccccc3)c2c1
dose: 31.3 mg/kg/injection, schedule: Q01DX010 (ip), vehicle: saline
  T/C: 177 % of control
dose: 62.5 mg/kg/injection, schedule: Q01DX010 (ip), vehicle: saline
  T/C: 204 % of control
dose: 125.0 mg/kg/injection, schedule: Q01DX010 (ip), vehicle: saline
  T/C: 200 % of control

## COC1C(=O)c2ccccc2N1C(C)=O (stereo not drawn)
[9]
  T/C: 108 % of control
[10]
  T/C: 101 % of control
[11]
  T/C: 99 % of control

## CCN(CC)Cc1c(C)[nH]c2cc(Cl)ccc2c1=O
dose: 100.0 mg/kg/injection, schedule: Q01DX001 (ip), vehicle: saline with Tween-80
  T/C: 88 % of control
